{"source": "paper PMC3375117", "about": "(International Microbiology, 2011)", "key": {"[1]": {"tested_on": "amastigotes of L. donovani (LD-1S/MHOM/SD/00-strain 1S)", "settings": "cited from earlier work"}, "Vero cells [2]": {"tested_on": "Vero cells"}, "Vero cells [3]": {"tested_on": "Vero cells", "settings": "cited from earlier work"}, "[4]": {"tested_on": "Leishmania promastigote and amastigote forms", "settings": "cited from earlier work"}, "[5]": {"tested_on": "chloroquine-resistant strain (Indocrina W2) of Plasmodium falciparum", "settings": "cited from earlier work"}, "[6]": {"tested_on": "recombinant Tulahuen clone C4 of T. cruzi", "settings": "read-out: IC50 T. cruzi; cited from earlier work"}, "[7]": {"tested_on": "human breast cancer cell line MCF-7", "settings": "read-out: IC50 cytotoxic activity MCF-7; cited from earlier work"}, "African trypanosomiasis": {"tested_on": "African trypanosomiasis", "settings": "mice; cited from earlier work"}, "[8]": {"tested_on": "amastigotes of L. donovani (LD-1S/MHOM/SD/00-strain 1S)", "test": "In vitro antiparasitic assay: Leishmania", "type": "cell-based", "settings": "read-out: typical IC50 response of L. donovani"}, "[9]": {"tested_on": "P. falciparum (K1, multidrug-resistant strain)", "settings": "cited from earlier work"}, "Vero cells [10]": {"tested_on": "Vero cells", "test": "Vero cell toxicity", "settings": "Vero cells versus L. donovani"}, "T. cruzi": {"tested_on": "T. cruzi", "settings": "cited from earlier work"}, "[11]": {"settings": "read-out: IC50 growth of Leishmania donovani in the amastigote form"}, "[12]": {"settings": "read-out: IC50 P. falciparum K1, K1, multidrug-resistant strain"}, "[13]": {"settings": "read-out: IC50 P. falciparum K1 strain, in vitro"}, "[14]": {"settings": "read-out: cytotoxicity to Vero cells IC50"}}, "note": "Like-named read-outs stand apart in the source and are kept apart here."}
{"molecule": "palmarumycin CP19 [Compound 4]", "values": [{"measurement": "IC50", "setting": "[1]; [11]", "result": 11.6, "unit": "µM"}, {"measurement": "therapeutic window: times greater anti-leishmanial activity than cytotoxicity", "setting": "Vero cells [2]", "result": 18, "unit": "times"}, {"measurement": "IC50", "setting": "Vero cells [3]", "result": 140, "unit": "µM"}]}
{"molecule": "CC(C)C[C@@H](C(=O)N[C@H]1COC(=O)[C@H](Cc2ccccc2)N(C)C(=O)[C@H](CC(C)C)N(C)C(=O)[C@@H](NC(=O)[C@H](CC(C)C)N(C)C)COC(=O)[C@H](Cc2ccccc2)N(C)C(=O)[C@H](CC(C)C)N(C)C1=O)N(C)C", "note": "[IB-01212]", "values": [{"measurement": "leishmanicidal activity", "setting": "[4]", "result": "low micromolar concentrations"}]}
{"molecule": "COc1c(CC(C)O)c2c3c(CC(C)O)c(OC)c(=O)c4c(O)cc5c(c6c(cc(O)c(c1=O)c62)OCO5)c43", "note": "(stereo not shown) [Compound 7, cercosporin]", "values": [{"measurement": "IC50", "setting": "[1]; read-out: IC50 L. donovani", "result": 0.46, "unit": "µM"}, {"measurement": "IC50", "setting": "[5]; read-out: IC50 P. falciparum", "result": 1.03, "unit": "µM"}, {"measurement": "IC50", "setting": "[6]", "result": 1.08, "unit": "µM"}, {"measurement": "IC50", "setting": "[7]", "result": 4.68, "unit": "µM"}]}
{"molecule": "C/C(=C\\Cc1c(O)c(Cl)c(C)c(C=O)c1O)CC/C=C(\\C)[C@@H]1CC(=O)C(C)(C)O1", "note": "[Ascofuranone]", "values": [{"measurement": "therapeutic effects for African trypanosomiasis", "setting": "African trypanosomiasis", "result": "good therapeutic effects"}]}
{"molecule": "C[C@@H]1[C@H](O)[C@@H](C)/C=C/C=C/C=C/C=C/C=C/C=C/C=C/[C@H](O[C@@H]2O[C@H](C)[C@@H](O)[C@H](N)[C@@H]2O)C[C@@H]2O[C@](O)(C[C@@H](O)C[C@@H](O)[C@H](O)CC[C@@H](O)C[C@@H](O)CC(=O)O[C@H]1C)C[C@H](O)[C@H]2C(=O)O", "note": "[Amphotericin B]", "values": [{"measurement": "IC50", "setting": "[8]", "result": "0.07 to 0.12", "unit": "µg/mL"}]}
{"molecule": "CC[C@@H](O)[C@@H]1C[C@@H]2OC(=O)c3c(cc(OC)c(OC)c3O)[C@@H]2O1", "note": "[11-hydroxymonocerin]", "values": [{"measurement": "IC50", "setting": "[9]; [12]", "result": 7.7, "unit": "µM"}]}
{"molecule": "COC1=CC(=O)C(Cl)=C(C)C1=O", "note": "[2-chloro-5-methoxy-3-methylcyclohexa-2,5-diene-1,4-dione]", "values": [{"measurement": "IC50", "setting": "[9]; [13]", "result": 1.84, "unit": "µM"}]}
{"molecule": "CCN(CC)CCCC(C)Nc1ccnc2cc(Cl)ccc12", "note": "(stereo not shown) [Chloroquine, reference compound]", "values": [{"measurement": "IC50", "setting": "[5]; positive control", "result": "0.08 to 0.1", "unit": "µM"}]}
{"molecule": "CCC[C@H]1C[C@H]2OC(=O)c3c(cc(OC)c(OC)c3O)[C@H]2O1", "note": "[Monocerin]", "values": [{"measurement": "IC50", "setting": "[9]; [12]", "result": 0.68, "unit": "µM"}]}
{"molecule": "O=C1C=C[C@]23Oc4ccc(O)c5c4[C@](CCC5=O)(Oc4cccc1c42)O3", "note": "[Compound 6, preussomerin EG^1]", "values": [{"measurement": "IC50", "setting": "[1]; [11]", "result": 0.12, "unit": "µM"}, {"measurement": "therapeutic window: times greater anti-leishmanial activity than cytotoxicity", "setting": "Vero cells [10]", "result": 12, "unit": "times"}, {"measurement": "IC50", "setting": "Vero cells [3]; [14]", "result": 150, "unit": "µM"}]}
{"molecule": "COc1cccc2oc3c(Cl)c(O)c([C@H]4CCC[C@@H](C)O4)c(O)c3c(=O)c12", "note": "[Chaetoxanthone C]", "values": [{"measurement": "IC50 T. cruzi", "setting": "T. cruzi", "result": 1.5, "unit": "µg/mL"}]}
{"molecule": "Oc1cccc2c1[C@@H](O)CCC21Oc2cccc3cccc(c23)O1", "note": "[Compound 5, CJ-12,371]", "values": [{"measurement": "IC50", "setting": "[1]; [11]", "result": 8.4, "unit": "µM"}, {"measurement": "therapeutic window: times greater anti-leishmanial activity than cytotoxicity", "setting": "Vero cells [10]", "result": 75, "unit": "times"}, {"measurement": "IC50", "setting": "Vero cells [3]; [14]", "result": 9, "unit": "µM"}]}
{"molecule": "O=C1CCC2(Oc3cccc4cccc(c34)O2)c2cccc(O)c21", "note": "[Compound 1, Palmarumycin CP2]", "values": [{"measurement": "IC50", "setting": "[1]; [11]", "result": 3.93, "unit": "µM"}, {"measurement": "therapeutic window: times greater anti-leishmanial activity than cytotoxicity", "setting": "Vero cells [10]", "result": 41, "unit": "times"}, {"measurement": "IC50", "setting": "Vero cells [3]; [14]", "result": 162, "unit": "µM"}]}
{"molecule": "O=C1CCC2(Oc3cccc4cccc(c34)O2)c2c(O)ccc(O)c21", "note": "[Compound 2, palmarumycin CP17]", "values": [{"measurement": "IC50", "setting": "[1]; [11]", "result": 1.34, "unit": "µM"}, {"measurement": "therapeutic window: times greater anti-leishmanial activity than cytotoxicity", "setting": "Vero cells [10]", "result": 130, "unit": "times"}, {"measurement": "IC50", "setting": "Vero cells [3]; [14]", "result": 174, "unit": "µM"}]}
{"molecule": "COc1cc2c3c(oc2c(C)c1O)C(=O)C(C)=CC3=O", "note": "[xylariaquinone A]", "values": [{"measurement": "IC50", "setting": "[9]; [13]", "result": 6.68, "unit": "µM"}]}
{"molecule": "palmarumycin CP18 [Compound 3]", "values": [{"measurement": "IC50", "setting": "[1]; [11]", "result": 0.62, "unit": "µM"}, {"measurement": "therapeutic window: times greater anti-leishmanial activity than cytotoxicity", "setting": "Vero cells [2]", "result": 245, "unit": "times"}, {"measurement": "IC50", "setting": "Vero cells [3]", "result": 152, "unit": "µM"}]}
